Measurements: publication PMC2736375, “Solution Behavior and Activity of a Halophilic Esterase under High Salt Concentration” (PLoS ONE, 2009)

Molecular target: T1, LipC (Haloarcula marismortui, UniProt Q5V5N6)
T1 construct: full-length, N- and C-terminal 6xHis tags, pET28a (NheI/HindIII), E. coli BL21(DE3); theoretical 34 kDa, ~50 kDa on SDS-PAGE; no signal peptide; catalytic triad Ser128, Asp224, His254; active as free monomers, mixed aggregates
T1 sequence (Q5V5N6 1-327): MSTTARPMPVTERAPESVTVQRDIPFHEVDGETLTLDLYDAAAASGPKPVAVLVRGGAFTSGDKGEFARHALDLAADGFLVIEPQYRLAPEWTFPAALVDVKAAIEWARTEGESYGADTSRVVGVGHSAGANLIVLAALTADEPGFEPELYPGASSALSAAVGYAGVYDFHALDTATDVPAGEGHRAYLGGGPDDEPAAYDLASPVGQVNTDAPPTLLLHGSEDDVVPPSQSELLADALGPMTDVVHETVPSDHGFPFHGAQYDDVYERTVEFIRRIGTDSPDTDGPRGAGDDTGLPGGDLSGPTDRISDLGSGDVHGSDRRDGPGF
Test: p-nitrophenol release at […] nm
Format: biochemical
Conditions: 0.5 mM substrate, 50 mM Tris-HCl pH 8.5, 45 °C, 3.4 M NaCl

| SMILES | p-nitrophenol release at 405 nm |
| --- | --- |
| CC(=O)Oc1ccc([N+](=O)[O-])cc1 [p-NP-C2, p-nitrophenyl acetate] | The highest specific activity of LipC was found towards the short chain p-nitrophenyl esters |
| CCC(=O)Oc1ccc([N+](=O)[O-])cc1 [p-NP-C3] | short chain p-nitrophenyl esters of p-NP-C2 and p-NP-C3 |
